In patent US4891358A, “ANE derivatives with novel bridging” (Bio-Mega Inc., priority 1987, dated 1990):
Numbered stars: 1 amine (or outer) side, 2 acyl side, 3 side chain; on linkers, the order of the positions; unused ones are H or OH. Bridge positions count the residues as written; N and C are the ends. Square brackets hold non-standard residues; d marks the D form. Peptide text beside a SMILES is read from it. Pen = CC(C)(S)[C@H](N)C(=O)O; X1 = O=C(CCC[*:2])[*:1]

Test system: conscious normotensive rat
Test: Diuretic assay in the conscious normotensive rat
Assay type: in vivo
Conditions: for URINE VOLUME: 0.5 μg/kg/min infusion via femoral vein, ratio of treated over control, volume in 10 minute sample (average of three consecutive samples); for ELECTROLYTE EXCRETION K^+ / ELECTROLYTE EXCRETION Na^+: 0.5 μg/kg/min infusion, treated minus controls, average of three samples
Source text: More explicitly, normotensive male rats (300-325 g) were anesthetized with halothane. Following an application of lidocaine 2% solution, the femoral artery was cannulated for measurements of blood pressure and heart rate, and the femoral vein was cannulated for the administration of the test compounds. The bladder was also cannulated to measure urine flow. After surgery was completed, the animals were placed in restraining cages and allowed to recover from anesthesia for a period of one hour. A Ringer's solution infusion was started at a rate of 1.2 ml per hour. Three control urine samples were collected at 10 minute intervals. The test compound was then infused at a rate varying from 0.5 to 3 μg/kg/min over 30 minutes. Three test samples of urine were collected at 10 minute intervals during the compound infusion. After the test compound had been infused for 30 minutes and 3 more urine samples were collected. The volume of each urine sample was determined and the electrolyte concentration was measured using a biomedical electrolyte analyser. The animals served as their own controls. The systolic and diastolic blood pressures and the heart rate were determined during each urine collection period.

Compound | URINE VOLUME | ELECTROLYTE EXCRETION K^+ | ELECTROLYTE EXCRETION Na^+
CC[C@H](C)[C@@H]1NC(=O)[C@H](CCCNC(=N)N)NC(=O)[C@H](CC(=O)O)NC(=O)[C@H]([C@@H](C)CC)NC(=O)[C@H](CCCNC(=N)N)NC(=O)CNC(=O)CNC(=O)[C@H](Cc2ccccc2)NC(=O)CCCSC(C)(C)[C@@H](C(=O)N[C@@H](CC(N)=O)C(=O)N[C@@H](CO)C(=O)N[C@@H](Cc2ccccc2)C(=O)N[C@@H](CCCNC(=N)N)C(=O)N[C@@H](Cc2ccc(O)cc2)C(=O)O)NC(=O)CNC(=O)[C@H](CC(C)C)NC(=O)CNC(=O)[C@H](CO)NC(=O)[C@H](CCC(N)=O)NC(=O)[C@H](C)NC(=O)CNC1=O [rat[(CH2 CH2 CH2 CO)^105, Pen^121]-ANF(105-126)] (FGGRIDRIGAQSGLG[Pen]NSFRY-OH; linker N-16 via X1) | 3.0 | 24.8 | 17.9
rat [(CH2 -CH2 CH2 CO)^105]ANF-(105-126) [rat[(CH2 CH2 CH2 CO)^105]-ANF(105-126)] | 2.8 | 10.2 | 34.0
